Laboratory results published in patent US8828987B2, “Pyridine amide derivatives as EP4 receptor antagonists” (Rottapharm Biotech S.R.L., priority 2010, dated 2014).

Legend:
human EP4 receptor [1] = molecular target: T1, human EP4 receptor (Homo sapiens, UniProt P35408); assay: [3H]-Prostaglandin E2 membrane binding assay (human EP4/HEK293 transfectant membranes); details: [3H]-PGE2 1 nM, hEP4/HEK293 membranes; Ki by Cheng-Prusoff; read-out: Binding pKi (converted)
T1 construct: expressed in transfected cells; membrane fraction used
Source text: (§1) Stable Expression of Human EP4 Receptors in the Human Embryonic Kidney (HEK293) Cell Line
(§2) The cDNA clone of human EP4 receptor (NM_000958.2) was obtained from Invitrogen™: Ultimate™ ORF Clone Collection—Clone ID IOH46525. The coding sequence was subcloned in expression vector pcDNA™6.2/V5-DEST by Gateway technology (Invitrogen™).
(§3) Human embryonic kidney cells (HEK-293) were stably transfected with expression vector for human EP4 receptor in according to the method described in FuGENE®6 Transfection Reagent's manual (Roche Applied Science®).
(§4) Preparation of Membrane Fraction:
(§5) The EP4 transfected cells were grown in Dulbecco's modified Eagle's medium containing 10% fetal bovine serum and 10 μg/ml Blasticidin S HCl (selection medium) at 37° C. in a humidified atmosphere of 5% CO2 in air.
(§6) For the membrane preparation, cells in flask were harvested by hypotonical/mechanical lysis with chilled (4° C.) TE buffer (5 mM TRIS, 5 mM etylenediamine tetra-acetic acid (EDTA), pH 7.4).
(§7) Cells were detached and lysed with 10 ml of hypotonic lysis buffer and by scraping. The cell lysate was vortexed for 30 sec and centrifuged at 40000×g at 4° C. for 22 min.
a) Membrane Binding Assay[3H]-Prostaglandin E2
The membrane pellet was resuspended in the same buffer (5 mM TRIS, 5 mM ethylenediamine tetra-acetic acid (EDTA), pH 7.4), and protein concentration was determined by Bradford method (Bio-Bad® assay).
This membrane preparation was stored at −80° C. freezer until use for binding assay.
([^3H]-PGE2) membranes binding assays toward hEP4 receptors (human EP4/HEK293 transfectant, see above) and hEP2 receptors (human EP2/HEK293 transfectant, purchased from PerkinElmer Inc) were performed in 10 mM MES-KOH buffer pH6, containing 10 mM MgCl2 and 1 mM CaCl2 for EP4 binding assay or 50 mM Tris-Cl, BSA 0.5% for EP2 binding assay (according to supplier indication).
Ten microgram of protein from membrane fractions were incubated in a total volume of 0.1 ml (EP4) or 0.2 ml (EP2) with 1 nM (EP4) or 3 nM (EP2) [^3H]-PGE2 (PerkinElmer Inc, 171 Ci/mmol). In both assays to determine the total binding or non specific binding, 1% DMSO or 1 μM prostaglandin E2 (EP4) or 100 μM (EP2) were added to reaction mixtures, respectively. Incubation was conducted in a polypropylene 96 multiwell for 90 min (EP4) or 60 min (EP2) at room temperature prior to separation of the bound and free radioligand by vacuum manifold rapid filtration on glass fiber filters (Unifilter GFB96, PerkinElmer Inc) pre-soaked in 0.3% polyethyleneimine. Filters were washed with ice cold buffer pH 7.4 (50 mM HEPES, NaCl 500 mM, BSA 0.1% for EP4 binding assay or 50 mM Tris-Cl for EP2 binding assays) and the residual [^3H]-PGE2 binding determined by solid scintillation counter (TopCount, PerkinElmer Inc).
The affinity (Ki) of each compound was calculated according to the Cheng-Prousoff equation: Ki=IC50/(1+([C]/Kd)). Results were expressed as pKi (−log 10 Ki (M)
Compounds of example 1 to 82 were tested according to method of example 83a in a final concentration range from 1 nM to 1 μM.

human EP4 receptor [2] = molecular target: T1, human EP4 receptor; assay: cAMP assay (AlphaScreen) on human EP4 membrane of transfected cells, antagonism of PGE2; assay type: biochemical; details: HEK293 hEP4 cell membrane stimulated with PGE2 3 nM; read-out: functional IC50
Source text: as §1, §2, §3, §4, §5, §6, §7
b) cAMP Assay on Human EP4 Membrane of Transfected Cells.
The assay is based on the competition between endogenous cAMP and exogenously added biotinylated cAMP. The capture of cAMP is achieved by using a specific antibody conjugated to […] beads.
Cell membranes prepared as described above, were resuspended in 1 ml stimulation buffer (HBSS 1×+BSA 0.1%+IBMX 0.5 mM+HEPES 5 mM+MgCl2 10 mM+GTP 1 nM+GDP 10 μM+ATP 100 μM−pH 7.4). Cell membranes were dispensed into white 384-well microplates at final concentration of 1 μg/well and used for the determination of cAMP with the alphascreen cAMP functional assay (EnVision—PerkinElmer). Cell membrane/anti-cAMP Acceptor beads mix (5 μl) and a mixture of analysed compounds (dissolved in 100% DMSO to a final maximal concentration of 0.01% DMSO)/PGE2 (5 μl) were incubated at room temperature (22-23° C.) for 30 min in the dark. The Biotinylated-cAMP and donor beads (15 μl) were dispensed into each well to start the competition reaction. After 1 h incubation RT (22-23° C.) in the dark the plate was read using EnVision platform to determine the cAMP level (excitation: 680 nm; emission: 520,620 nm).
cAMP standard curve (concentration range from 1×10-6 to 1×10-11 M in. log intervals) with a negative control (no cAMP) a positive control:forskolin 10 μM
Antagonism studies were performed stimulating HEK293 cell membrane with PGE2 3 nM. The AlphaScreen signal is plotted as a function of log concentration of cAMP and functional IC50 is determined. IC50 value is calculated by linear regression.
Some compounds were tested according to method of example 83b.

T1 sequence (P35408 whole entry): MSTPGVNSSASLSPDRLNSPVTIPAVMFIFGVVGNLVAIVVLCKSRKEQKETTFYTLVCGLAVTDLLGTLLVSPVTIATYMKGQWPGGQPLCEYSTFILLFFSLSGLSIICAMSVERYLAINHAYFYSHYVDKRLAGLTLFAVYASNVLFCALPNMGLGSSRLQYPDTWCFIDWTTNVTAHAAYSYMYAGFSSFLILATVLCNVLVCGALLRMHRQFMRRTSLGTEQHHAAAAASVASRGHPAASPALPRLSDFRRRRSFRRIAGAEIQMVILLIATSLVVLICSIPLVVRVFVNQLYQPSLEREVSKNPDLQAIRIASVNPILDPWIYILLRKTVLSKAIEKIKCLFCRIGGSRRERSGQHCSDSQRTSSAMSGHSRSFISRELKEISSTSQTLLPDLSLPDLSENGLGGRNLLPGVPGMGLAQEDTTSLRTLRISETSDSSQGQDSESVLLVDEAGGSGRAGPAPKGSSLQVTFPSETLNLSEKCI

| SMILES | Ki (human EP4 receptor [1]) [nM] | IC50 (human EP4 receptor [2]) [nM] |
| --- | --- | --- |
| Cc1cc(C(F)(F)F)ccc1NC1CN(c2ncc(Cl)cc2C(=O)NC2(c3ccc(C(=O)O)cc3)CC2)C1 [E 36, 4-(1-(5-chloro-2-(3-((2-methyl-4-(trifluoromethyl)phenyl)amino)azetidin-1-yl)nicotinamido)cyclopropyl)benzoic acid] | 3.98 | 30 |
| O=C(O)c1ccc(C2(NC(=O)c3cc(F)cnc3N3CC(Oc4cccc(OC(F)(F)F)c4)C3)CC2)cc1 [E 55, 4-(1-(5-fluoro-2-(3-(3-(trifluoromethoxy)phenoxy)azetidin-1-yl)nicotinamido)cyclopropyl)benzoic acid] | 31.6 | 126 |
| O=C(O)c1ccc(C2(NC(=O)c3cc(C(F)(F)F)cnc3N3CC(Nc4ccc(F)cc4F)C3)CC2)cc1 [E 52, 4-(1-(2-(3-((2,4-difluorophenyl)amino)azetidin-1-yl)-5-(trifluoromethyl)nicotinamido)cyclopropyl)benzoic acid] | 20 | 74 |
| O=C(O)c1ccc(C2(NC(=O)c3cc(Cl)cnc3N3CCC(Oc4ccccc4)C3)CC2)cc1 (single isomer, unassigned) [E 60] | 79.4 | 96.5 |
| O=C(O)c1ccc(C2(NC(=O)c3cc(Cl)cnc3N3CCC(Oc4cccc(F)c4)C3)CC2)cc1 (single isomer, unassigned) [E 69, 4-(1-(5-chloro-2-(3-(3-fluorophenoxy)pyrrolidin-1-yl)nicotinamido)cyclopropyl)benzoic acid] | 50.1 | 308 |
| O=C(O)c1ccc(C2(NC(=O)c3cc(Cl)cnc3N3CCC[C@@H]3COc3cccc(F)c3)CC2)cc1 [E 77, 4 (R)-4-(1-(5-chloro-2-(2-((3-fluorophenoxy)methyl)pyrrolidin-1-yl)nicotinamido)cyclopropyl)benzoic acid] | 10 | 90 |
| C[C@H](NC(=O)c1cc(Cl)cnc1N1CC(Oc2ccc(F)cc2)C1)c1ccc(C(=O)O)cc1 [E 11, (S)-4-(1-(5-chloro-2-(3-(4-fluorophenoxy)azetidin-1-yl)nicotinamido)ethyl)benzoic acid] | 100 | 386 |
| O=C(O)c1ccc(C2(NC(=O)c3cc(Cl)cnc3N3CC[C@H](Oc4cccc(F)c4)C3)CC2)cc1 [E 80, (S)-4-(1-(5-chloro-2-(3-(3-fluorophenoxy)pyrrolidin-1-yl)nicotinamido)cyclopropyl)benzoic acid] | 39.8 | 99 |
| O=C(NC1(c2ccc(-c3nnn[nH]3)cc2)CC1)c1cc(Cl)cnc1N1CC(Oc2cccc(F)c2)C1 [E 82, N-(1-(4-(1H-tetrazol-5-yl)phenyl)cyclopropyl)-5-chloro-2-(3-(3-fluorophenoxy)azetidin-1-yl)nicotinamide] | 5.01 | 27 |
| O=C(O)c1ccc(C2(NC(=O)c3cc(F)cnc3N3CC(Oc4cccc(Cl)c4)C3)CC2)cc1 [E 54, 4-(1-(5-fluoro-2-(3-(3-chlorophenoxy)azetidin-1-yl)nicotinamido)cyclopropyl)benzoic acid] | 25.1 | 75 |
| O=C(O)c1ccc(C2(NC(=O)c3cc(Cl)cnc3N3CCC(c4ccccc4)C3)CC2)cc1 (single isomer, unassigned) [E 4, 4-(1-(5-chloro-2-(3-phenylpyrrolidin-1-yl)nicotinamido)cyclopropyl)benzoic acid] | 200 | 102 |
| O=C(O)c1ccc(C2(NC(=O)c3cc(Cl)cnc3N3CC(Oc4cccc(OC(F)(F)F)c4)C3)CC2)cc1 [E 18, 4-(1-(5-chloro-2-(3-(3-(trifluoromethoxy)phenoxy)azetidin-1-yl)nicotinamido)cyclopropyl)benzoic acid] | 12.6 | 22 |
| O=C(O)c1ccc(C2(NC(=O)c3cc(C(F)(F)F)cnc3N3CC(Oc4ccc(F)cc4F)C3)CC2)cc1 [E 44, 4-(1-(2-(3-(2,4-difluorophenoxy)azetidin-1-yl)-5-(trifluoromethyl)nicotinamido)cyclopropyl)benzoic acid] | 10 | 17.5 |
| O=C(O)c1ccc(C2(NC(=O)c3cc(Cl)cnc3N3CC(Nc4ccc(F)cc4)C3)CC2)cc1 [E 33, 4-(1-(5-chloro-2-(3-((4-fluorophenyl)amino)azetidin-1-yl)nicotinamido)cyclopropyl)benzoic acid] | 6.31 | 44.5 |
| O=C(O)c1ccc(C2(NC(=O)c3cc(C(F)(F)F)cnc3N3CC(Oc4ccc(F)cc4)C3)CC2)cc1 [E 39, 4-(1-(2-(3-(4-fluorophenoxy)azetidin-1-yl)-5-(trifluoromethyl)nicotinamido)cyclopropyl)benzoic acid] | 7.94 | 72 |
| O=C(O)c1ccc(C2(NC(=O)c3cc(Cl)cnc3N3CC(Oc4cccc(C(F)(F)F)c4)C3)CC2)cc1 [E 14, 4-(1-(5-chloro-2-(3-(3-(trifluoromethyl)phenoxy)azetidin-1-yl)nicotinamido)cyclopropyl)benzoic acid] | 5.01 | 38 |
| O=C(O)c1ccc(C2(NC(=O)c3cc(C(F)(F)F)cnc3N3CC(Oc4ccc(F)c(F)c4)C3)CC2)cc1 [E 45, 4-(1-(2-(3-(3,4-difluorophenoxy)azetidin-1-yl)-5-(trifluoromethyl)nicotinamido)cyclopropyl)benzoic acid] | 3.16 | 10 |
| O=C(O)c1ccc(C2(NC(=O)c3cc(C(F)(F)F)cnc3N3CC(Oc4cccc(OC(F)(F)F)c4)C3)CC2)cc1 [E 43, 4-(1-(2-(3-(3-(trifluoromethoxy)phenoxy)azetidin-1-yl)-5-(trifluoromethyl)nicotinamido)cyclopropyl)benzoic acid] | 3.16 | 38 |
| O=C(O)c1ccc(C2(NC(=O)c3cc(Cl)cnc3N3CC(Nc4cccc(C(F)(F)F)c4)C3)CC2)cc1 [E 31, 4-(1-(5-chloro-2-(3-((3-(trifluoromethyl)phenyl)amino)azetidin-1-yl)nicotinamido)cyclopropyl)benzoic acid] | 7.94 | 47 |
| O=C(O)c1ccc(C2(NC(=O)c3cc(Cl)cnc3N3CC(Oc4ccc(F)cc4)C3)CC2)cc1 [E 15, 4-(1-(5-chloro-2-(3-(4-fluorophenoxy)azetidin-1-yl)nicotinamido)cyclopropyl)benzoic acid] | 12.6 | 70 |
| O=C(O)c1ccc(C2(NC(=O)c3cc(Cl)cnc3N3CCCC3c3ccccc3)CC2)cc1 (single isomer, unassigned) [E 3, 4-(1-(5-chloro-2-(2-phenylpyrrolidin-1-yl)nicotinamido)cyclopropyl)benzoic acid] | 31.6 | 133 |
